Consider six molecules from patent publication US20100048564A1, “FUSED BICYCLIC HETEROARYL DERIVATIVE” (DAIICHI SANKYO COMPANY, LIMITED, priority 2007, published 2010).

pEC50: −log10 of the molar value. Read-outs that look alike come from different tables or passages of the source.

One test concerns KK mice. Briefly: Hypoglycemic effect in diabetic KK mice (Test Example 1). The test is classed as in vivo. The settings on record: Mus musculus, po, 72 h; male KK mice, diet admixture containing 0.03% of the compound, 3 days, plasma glucose vs control group; read-out: Hypoglycemic rate (%). The text has this:
Six-week-old male KK mice were purchased from CLEA Japan, Inc. and then were fed until 15 to 20 weeks old to develop diabetes. The mice were individually fed during the adaptation period and the test period, and water and feed (FR2, Funabashi Farm) were freely ingested.
At the start of the experiment, after body weight measurement, blood was collected from the tail vein of the mice into a heparin-coated glass tube and centrifuged, and then plasma was separated. The glucose level in the plasma was measured by Glucoloader GXT (A&T Corp.), and individuals having a plasma glucose level of about 350 mg/dl or more were selected. The mice were grouped, each group having 3 to 4 mice, to make the average body weight and the average plasma glucose level similar. Each compound was administered to a compound group with a diet admixture containing 0.03% of the compound. A separate group in which the mice were fed only with diet was a control group.
The experiment period (drug administration period) was three days. The grouping day was the 0th day. On the 3rd day, the body weight was measured and blood was collected from the tail vein to measure the plasma glucose level.
The hypoglycemic rate was determined by the following formula.
Hypoglycemic rate=[(Control group blood glucose level−Compound-administered group blood glucose level)/Control group blood glucose level]×100

Another test deals with Rat white adipocytes. In words: Adipocyte differentiation promotion test (Test Example 4). The test is classed as cell-based. The settings on record: for pEC50: 120 h. The protocol: Rat white adipocytes included in a white adipocyte culture kit purchased from Primary Cell Co., Ltd. were subjected to this test. A medium included in the white adipocyte culture kit purchased from Primary Cell Co., Ltd. was used as a growth medium or a differentiation-inducing medium.
The whole of the transportation medium was extracted immediately after the arrival of the purchased cells. The growth medium was added in an amount of 5 ml(/25 cm^2-flask), and the cells were cultured for one day. Thereafter, a cell suspension (83,000 cells/mL) was prepared using the growth medium. The cell suspension was dispensed to a 96-well type-I collagen-coated microplate (SUMITOMO BAKELITE Co., Ltd.) at 5,000 cells/well (60 μL/well). A well to which only the growth medium not containing cells was dispensed (blank well) was provided as a blank group in each plate.
Further, 1) for the test compound-added group, a 100 μM solution of the test compound in DMSO was diluted 20-fold with the differentiation-inducing medium; this was added at 3 μL/well (final test compound concentration: 100 nM, final DMSO concentration: 0.1% (v/v)) to the wells into which the cells were seeded. […] 3) For the negative control group, DMSO diluted 20-fold with the differentiation-inducing medium was added at 3 μL/well (final DMSO concentration: 0.1% (v/v)) to the wells into which the cells were seeded.
After culturing for five days, the whole of the differentiation-inducing medium was removed from each well, and 60 μL of a 10% (v/v) formaldehyde solution (fixative solution) was added to each well. The cells were incubated at room temperature for 20 minutes. The whole of the fixative solution was removed and 60 μL of a 0.2% (v/v) Triton X-100 solution (Sigma) was dispensed to each well. The cells were incubated at room temperature for five minutes. The whole of the Triton X-100 solution was removed. A fat stain was prepared by dissolving Oil Red 0 (Sigma) in a 60% (v/v) isopropanol solution at 0.3% (w/v), and 60 μL of the fat stain was dispensed to each well. The cells were incubated at room temperature for 10 minutes. The whole of the fat stain was removed, and then 60 μL of a 60% (v/v) isopropanol solution was dispensed and removed. Thus, each well was washed twice. Thereafter, DMSO was added to each well at 100 μL per well, followed by stirring at room temperature for five minutes. […] The degree of adipocyte differentiation (%) of the test compound-added group was calculated assuming that the measured ABS550 of the positive control group was 100% and the measured ABS550 of the negative control group was 0.

The target of test [1] is T1, GAL4-PPARγ chimeric receptor (Homo sapiens, UniProt P37231).
T1 construct: containing amino acids 175 to 475 of human PPARγ and a stop codon at the carboxy end; expressed in transfected cells; host or cells: COS-7 (monkey kidney) cells, transfected with pM-PPARγ and pFR-Luc
T1 sequence (P37231 with tags, fused parts or gaps): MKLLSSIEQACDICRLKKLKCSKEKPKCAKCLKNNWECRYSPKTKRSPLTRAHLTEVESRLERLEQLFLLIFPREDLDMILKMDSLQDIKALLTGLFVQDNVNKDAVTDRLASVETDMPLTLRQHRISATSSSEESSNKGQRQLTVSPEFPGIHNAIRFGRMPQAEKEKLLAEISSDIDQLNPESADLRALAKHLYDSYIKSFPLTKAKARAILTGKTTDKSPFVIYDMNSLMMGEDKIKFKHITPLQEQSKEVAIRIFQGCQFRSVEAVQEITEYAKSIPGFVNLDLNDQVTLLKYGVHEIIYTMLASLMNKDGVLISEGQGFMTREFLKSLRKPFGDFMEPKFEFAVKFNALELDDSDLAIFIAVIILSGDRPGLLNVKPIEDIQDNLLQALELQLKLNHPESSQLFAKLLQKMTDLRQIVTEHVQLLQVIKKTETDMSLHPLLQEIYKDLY
In words: Measurement of PPARγ activation effect/modulator activity, GAL4-PPARγ reporter assay in COS-7 cells (Test Example 5). The test is classed as cell-based. The settings on record: for Emax: COS-7; for EC50: COS-7 cells with pM-PPARγ and pFR-Luc, concentration represented by Emax/2, read-out: EC50. How it is done:
The details will be shown below.
The plasmid is a gene that can express a GAL4-PPARγ chimeric receptor in mammalian cells.
The previously acquired plasmid pM-PPARγ and the plasmid pFR-Luc purchased from Stratagene Cloning Systems, Inc. were dissolved in deionised water at a concentration of 1 mg/mL each.
On the following day, the cells were harvested by trypsin treatment, suspended in phenol red-free Dulbecco's modified Eagle's medium containing […] 10% fetal bovine serum, seeded into a white 96-well plate (manufactured by Costar) using the medium in a volume of 95 μL per well, and cultured overnight.
The test compound was dissolved in dimethyl sulfoxide at a concentration of 30 mM. […] Dimethyl sulfoxide was prepared for the control group. Rosiglitazone dissolved in dimethyl sulfoxide at a concentration of 30 mM was prepared for the positive control group. They were diluted 150-fold with the medium, and 5 μL of the dilution was added to the wells in which the cells were grown. The concentrations of the test compound treating the cells ranged from 10 μM to 0.006 nM. After the addition, the cells were cultured overnight.
On the following day, the medium was removed, and Luc Lite (manufactured by PerkinElmer Inc.) was prepared according to the attached document and added at 50 microliters per well. The plates with cells in the Luc Lite was stirred for about 30 minutes. The amount of luminescence in each well was measured as luciferase activity using Analyst (Molecular Devices) for 0.5 second. A dose-dependent curve was drawn.
For orientation: In a reporter assay the amount or activity of a reporter protein is the signal.

Setting [2] is: Adipocyte, rat white adipocytes, test compound alone, 5 days, Oil Red O ABS550, read-out: EC50.
Setting [3] is: Rattus norvegicus, degree of adipocyte differentiation, positive control (Compound A 3.3 nM) 100%, negative control 0, read-out: Emax (%).
The mark [4] stands for this setting: maximum luciferase activity, positive control (Rosiglitazone) 100%, control 0%, read-out: Emax (%).

With `Cc1cc(Oc2ccc3nc(COc4cccc(C(=O)O)c4)n(C)c3c2)cc(C)c1N.Cl.Cl` [Example 2, 3-{[6-(4-Amino-3,5-dimethylphenoxy)-1-methyl-1H-benzimidazol-2-yl]methoxy}benzoic acid dihydrochloride], the inhibition in vivo at 0.03 % in diet with KK mice amounted to 37%. Further, the pEC50 in the test with Rat white adipocytes (setting [2]) is 8.38. In addition, the Emax with Rat white adipocytes (setting [3]) amounted to 73%; in test [1] (setting [4]) it was 73.3%. The EC50 in test [1] turned out to be 299000 pM.
For `Cl.Cn1c(COc2cccc(C(=O)O)c2)nc2ccc(Oc3cccc(F)c3)cc21` [Example 8, 3-{[6-(3-Fluorophenoxy)-1-methyl-1H-benzimidazol-2-yl]methoxy}benzoic acid hydrochloride], in that order: 29%, 8.13, 75%, 91% and 4.74e+06 pM.
In the same order, the values of `Cl.Cn1c(COc2cccc(C(=O)O)c2)nc2ccc(Oc3ccc(Cl)c(F)c3)cc21` [Example 10, 3-{[6-(4-Chloro-3-fluorophenoxy)-1-methyl-1H-benzimidazol-2-yl]methoxy}benzoic acid hydrochloride] are 35%, 8.18, 78%, 46.5% and 67000 pM.
For `Cl.Cn1c(COc2cccc(C(=O)O)c2)nc2ccc(Oc3ccc(F)c(Cl)c3)cc21` [Example 12, 3-{[6-(3-Chloro-4-fluorophenoxy)-1-methyl-1H-benzimidazol-2-yl]methoxy}benzoic acid hydrochloride], the inhibition in vivo at 0.03 % in diet with KK mice stood at 30%. For the same molecule, the pEC50 with Rat white adipocytes (setting [2]) is 8.28. Moreover, the Emax in the test with Rat white adipocytes (setting [3]) was determined as 82%; in test [1] (setting [4]), 60.2%. Further, the EC50 in test [1] turned out to be 39700 pM.
Regarding `Cl.Cn1c(COc2cccc(C(=O)O)c2)nc2ccc(Oc3ccccc3)cc21` [Example 14, 3-[(1-Methyl-6-phenoxy-1H-benzimidazol-2-yl)methoxy]benzoic acid hydrochloride], in the test on KK mice, the inhibition in vivo at 0.03 % in diet was determined as 33%. Further, the maximum response (Emax) in the test with Rat white adipocytes (Rattus norvegicus, Adipocyte) came out at 56%; in test [1], 89.6%. Besides, the pEC50 is 7.70 with Rat white adipocytes (Rattus norvegicus, Adipocyte) and 6.07 in test [1].
Regarding `Cl.Cl.Cn1c(COc2cccc(C(=O)O)c2)nc2ccc(Oc3ccccc3)nc21` [Example 16, 3-[(3-Methyl-5-phenoxy-3H-imidazo[4,5-b]pyridin-2-yl)methoxy]benzoic acid dihydrochloride], the inhibition in vivo at 0.03 % in diet in the test with KK mice was determined as 60%. For the same molecule, the pEC50 in the test on Rat white adipocytes (setting [2]) is 7.19. The Emax with Rat white adipocytes (setting [3]) was 71%; in test [1] (setting [4]), 60.9%. The EC50 in test [1] amounted to 550000 pM.

One may read the pEC50 as −log10 of the EC50, conventionally taken in molar units. Usually Emax stands for the size of the effect at its maximum, as opposed to the concentration needed. For orientation: EC50 means the concentration giving half of the maximal effect.
